Results taken from patent publication US8377934B2, “Use of stilbene derivatives for treatment and prevention of aquatic mold infections” (State of Israel, Ministry of Agriculture & Rural …, priority 2006, dated 2013).
Converted amounts (≈) assume the structure as drawn. Like-named read-outs stand apart in the source and are kept apart here.

Columns and labels:
S. parasitica CBS 540.67 [1] = experiment: Agar-dilution susceptibility testing (filamentous hyphae); type: cell-based, Saprolegnia parasitica; conditions: S. parasitica CBS 540.67, 24 h, 15-20° C., geometric mean of three tests; for MIC: Saprolegnia parasitica, CBS540, read-out: MIC, Agar-dilution
S. parasitica T-1 [2] = experiment: Broth macrodilution susceptibility testing (zoospores and cysts); type: cell-based, Saprolegnia parasitica; conditions: S. parasitica T-1, 24 h, 15-20° C., geometric mean of three tests; for MIC: Saprolegnia parasitica, read-out: MIC, Macrodilution
Procedure: (§1) Two methods were used, each suitable for a different phase of the asexual life cycle of Saprolegnia spp.: i) the broth macrodilution method, for determination of susceptibility of zoospores and cysts; and ii) the agar-dilution method for determination of susceptibility of filamentous hyphae. Each compound was tested three times in each method. Malachite Green was used as positive control.
(§2) This method is a modification of the method used for molds according to EUCAST 7.1 (European Committee on Antibiotic Susceptibility Testing) and CLSI/NCCLS M27-A2 (Clinical Laboratory Standards Institute/National Committee for Clinical Laboratory Standards). For inoculum preparation, S. parasitica isolates were cultured on GP-PS for 7 days with sterile clover seeds at 18° C. […] Cysts and zoospores free from hyphae were collected, and an inoculum of ˜10^3 CFU/ml as measured by hemacytometer counting, was prepared in RPMI. Fluorescent Brightener 28 stock solution was prepared by adding 40% KOH gradually to a 10 mg/ml solution in water, until it was clear, then it was filtered twice through a 0.2 μm cellulose acetate nonpyrogenic sterile filter (Schleicher & Schuell, Dassel, Germany).
(§3) Final drug concentrations in the test tubes ranged from 1×10^4 to 0.01 mg/L. Inoculum of 0.9 ml was added to each of a sterile tube containing 0.1 ml of the serially diluted drug. Two tubes containing drug-free medium and two tubes containing drug-free inoculum were used as controls. The inoculated tubes were incubated at room temperature (15-20° C.) for 24 h. The growth in each tube was then evaluated visually.

S. parasitica CBS 540.67 [3] = experiment: as above; type: cell-based, Saprolegnia parasitica; conditions: S. parasitica CBS 540.67, 24 h, 15-20° C., geometric mean of three tests; for MIC: Saprolegnia parasitica, CBS540, read-out: MIC, Macrodilution
Procedure: as §1, §2, §3

S. parasitica T-1 [4] = experiment: Agar-dilution susceptibility testing (filamentous hyphae); type: cell-based, Saprolegnia parasitica; conditions: S. parasitica T-1, 24 h, 15-20° C., geometric mean of three tests; for MIC: Saprolegnia parasitica, read-out: MIC, Agar-dilution
Procedure: as §1
Twofold serial dilutions were prepared in double distillated sterile water with final drug concentrations ranging from 10,000 to 0.01 mg/L in a final volume of 1.0 ml. […] The mixture was vortexed, and poured into small plates. After agar solidification a small measured piece, taken from a 7-10 day old culture of S. parasitica T-1 on GP-PS medium was placed upside down on each plate. The plates were incubated at room temperature (15-20° C.) for 24 h.

in vivo = conditions: hybrid tilapia (Oreochromis niloticus X Oreochromis aureus), in vivo, LC50
Procedure: (§4) LC50 values were determined by static short-term tests as a measure of the relative acute lethal toxicity for tilapia (Standard methods for the evaluation of water and wastewater (1985) 16th ed. American Public Health Association, Washington, D.C. p. 689-819).
(§5) Hybrid tilapia (Oreochromis niloticus X Oreochromis aureus) having an average weight of 20 g, were kept in 100 liter polyethylene tanks at a density of 1 fish per 10 liters, at a constant temperature of 21° C. for three weeks before the initiation of the experiment by addition of a test compound to each tank. […] For the latter experiments, fish were acclimated to the required temperature for three weeks prior to addition of the test compound to the tank. Fish were treated with 5 different concentrations of each test compound, determined according to the MIC values of each compound.
(§6) Mortality of fish was recorded up to 96 h. Water parameters (O2, NH4^+, NO2^−, pH and Cl^−) were monitored throughout the experiment and were maintained within acceptable limits. The presented results are the mean of two separate experiments.

tilapia = experiment: in vivo
Procedure: as §4, §5, §6

S. parasitica = experiment: In vitro susceptibility of S. parasitica in Table 4; type: cell-based, Saprolegnia parasitica; conditions: for MIC: Saprolegnia parasitica
Procedure: The in vitro susceptibility of Saprolegnia parasitica T-1 and S. parasitica CBS 540.67 to various compounds was determined by the agar-dilution and broth macrodilution methods.
as §1
This method is a modification of the method used for molds according to EUCAST 7.1 (European Committee on Antibiotic Susceptibility Testing) and CLSI/NCCLS M27-A2 (Clinical Laboratory Standards Institute/National Committee for Clinical Laboratory Standards). For inoculum preparation, S. parasitica isolates were cultured on GP-PS for 7 days with sterile clover seeds at 18° C. Clover seeds (˜20) covered with mycelium were removed and added to 40 ml of RPMI-1640 broth medium (Sigma; prepared according to NCCLS instructions) and incubated at 18° C. for 4-7 days. Cysts and zoospores free from hyphae were collected, and an inoculum of ˜10^3 CFU/ml as measured by hemacytometer counting, was prepared in RPMI. Fluorescent Brightener 28 stock solution was prepared by adding 40% KOH gradually to a 10 mg/ml solution in water, until it was clear, then it was filtered twice through a 0.2 μm cellulose acetate nonpyrogenic sterile filter (Schleicher & Schuell, Dassel, Germany).
as §3, with “Twofold serial dilutions of the resulting stock solutions were set in RPMI-1640 medium in a volume of 0.1 ml. Final” for “Final”
This method is a modification of the method presented by Bailey (Bailey, T. A. (1983) Prog. Fish Cult. 45:24-27), and was used for the susceptibility testing of Saprolegnia hyphae. Twofold serial dilutions were prepared in double distillated sterile water with final drug concentrations ranging from 10,000 to 0.01 mg/L in a final volume of 1.0 ml. Melted (56° C.) RPMI-1640 agar medium (Sigma) was prepared according to NCCLS instructions, and then added to each tube containing drug or water control. The mixture was vortexed, and poured into small plates. After agar solidification a small measured piece, taken from a 7-10 day old culture of S. parasitica T-1 on GP-PS medium was placed upside down on each plate. The plates were incubated at room temperature (15-20° C.) for 24 h.

[5] = method and isolate not separated, read-out: MIC
[6] = Table 4 summary, read-out: Activity in vitro (MIC), value

CCCCCCCCCCCCOS(=O)(=O)[O-].[Na+] [SDS, Sodium dodecylsulfate]
MIC (S. parasitica CBS 540.67 [1]): 500 µg/mL | MIC (S. parasitica T-1 [2]): 100 µg/mL | MIC (S. parasitica CBS 540.67 [3]): 250 µg/mL | MIC (S. parasitica T-1 [4]): 500 µg/mL

OO [Hydrogen peroxide]
LC50 (in vivo): 75 µg/mL (≈ 2200 µM) | Toxicity (tilapia; in vivo): Moderate (key: High: high = 50 ppm; Moderate: moderate = 50-200 ppm; Low: low = >1000 ppm) | MIC (S. parasitica T-1 [2]): 10 µg/mL (≈ 294 µM) | MIC (S. parasitica CBS 540.67 [3]): 8 µg/mL (≈ 235 µM) | MIC (S. parasitica; [5]): ≤ 10 µg/mL | MIC (S. parasitica; [6]): 10 µg/mL (≈ 294 µM) | Activity in vitro (MIC), grade (S. parasitica; Table 4 summary): High

Triton X-100
MIC, Agar-dilution (S. parasitica CBS 540.67 [1]): 200 µg/mL | MIC, Macrodilution (S. parasitica T-1 [2]): 50 mg/L | MIC, Macrodilution (S. parasitica CBS 540.67 [3]): 100 mg/L | MIC, Agar-dilution (S. parasitica T-1 [4]): 200 µg/mL

C[C@@H]1CC[C@@]2(OC1)O[C@H]1[C@@H](O)[C@H]3[C@@H]4CC[C@H]5C[C@@H](O[C@@H]6O[C@H](CO)[C@H](O[C@@H]7O[C@H](CO)[C@@H](O)[C@H](O[C@@H]8OC[C@@H](O)[C@H](O)[C@H]8O)[C@H]7O[C@@H]7O[C@H](CO)[C@H](O)[C@H](O[C@@H]8O[C@H](CO)[C@@H](O)[C@H](O)[C@H]8O)[C@H]7O)[C@H](O)[C@H]6O)[C@H](O)C[C@]5(C)[C@H]4CC[C@]3(C)[C@H]1[C@@H]2C [Digitonin]
MIC (S. parasitica CBS 540.67 [1]): 20 µg/mL (≈ 16.3 µM) | MIC (S. parasitica T-1 [2]): 2.5 µg/mL (≈ 2.03 µM) | MIC (S. parasitica CBS 540.67 [3]): 2.5 µg/mL (≈ 2.03 µM) | MIC (S. parasitica; [5]): ≤ 10 µg/mL | MIC (S. parasitica T-1 [4]): 10 µg/mL (≈ 8.13 µM)

O=S(=O)([O-])c1cc(Nc2nc(Nc3ccccc3)nc(N(CCO)CCO)n2)ccc1C=Cc1ccc(Nc2nc(Nc3ccccc3)nc(N(CCO)CCO)n2)cc1S(=O)(=O)[O-].[Na+].[Na+] [Fluorescent Brightener 28]
MIC, Agar-dilution (S. parasitica CBS 540.67 [1]): 5 µg/mL | MIC, Macrodilution (S. parasitica T-1 [2]): 1 mg/L | MIC, Macrodilution (S. parasitica CBS 540.67 [3]): 2 mg/L | MIC, Agar-dilution (S. parasitica T-1 [4]): 5 µg/mL

C=CCOC(Cn1ccnc1)c1ccc(Cl)cc1Cl (stereo not shown) [Enilconazole]
MIC (S. parasitica CBS 540.67 [1]): 5 µg/mL (≈ 16.8 µM) | MIC (S. parasitica T-1 [2]): 1 µg/mL (≈ 3.36 µM) | MIC (S. parasitica CBS 540.67 [3]): 1 µg/mL (≈ 3.36 µM) | MIC (S. parasitica T-1 [4]): 5 µg/mL (≈ 16.8 µM)

Tween ® 80
MIC, Agar-dilution (S. parasitica CBS 540.67 [1]): 200 µg/mL | MIC, Macrodilution (S. parasitica T-1 [2]): 100 mg/L | MIC, Macrodilution (S. parasitica CBS 540.67 [3]): 100 mg/L | MIC, Agar-dilution (S. parasitica T-1 [4]): 200 µg/mL

C[C@@H]1[C@H](O)[C@@H](C)/C=C/C=C/C=C/C=C/C=C/C=C/C=C/[C@H](O[C@@H]2O[C@H](C)[C@@H](O)[C@H](N)[C@@H]2O)C[C@@H]2O[C@](O)(C[C@@H](O)C[C@@H](O)[C@H](O)CC[C@@H](O)C[C@@H](O)CC(=O)O[C@H]1C)C[C@H](O)[C@H]2C(=O)O [Amphotericin B]
MIC, Agar-dilution (S. parasitica CBS 540.67 [1]): 2.5 µg/mL (≈ 2.71 µM) | Toxicity (tilapia; Table 4 summary): Moderate (moderate = 50-200 ppm) | MIC, Macrodilution (S. parasitica T-1 [2]): 0.5 mg/L (≈ 0.541 µM) | MIC, Macrodilution (S. parasitica CBS 540.67 [3]): 0.25 mg/L (≈ 0.271 µM) | Activity in vitro (MIC), grade (S. parasitica; Table 4 summary): High | Activity in vitro (MIC), value (S. parasitica; Table 4 summary): (0.1-0.5 mg/L) | MIC, Agar-dilution (S. parasitica T-1 [4]): 5 µg/mL (≈ 5.41 µM)

O=C([O-])[O-].O=C([O-])[O-].OO.OO.OO.[Na+].[Na+].[Na+].[Na+] [Sodium percarbonate]
Toxicity (tilapia; Table 4 summary): High (in (high = 50 ppm) | MIC, Macrodilution (S. parasitica T-1 [2]): 5 mg/L | MIC, Macrodilution (S. parasitica CBS 540.67 [3]): 2.5 mg/L | Activity in vitro (MIC), grade (S. parasitica; Table 4 summary): High | Activity in vitro (MIC), value (S. parasitica; Table 4 summary): (10 mg/L)

[Cl-].[Na+] [Sodium chloride]
MIC, Macrodilution (S. parasitica T-1 [2]): 30,000 mg/L | MIC, Macrodilution (S. parasitica CBS 540.67 [3]): 30,000 mg/L | Activity in vitro (MIC), value (S. parasitica; Table 4 summary): Low (30,000 mg/L

CCCCCCCCCCCCCCCC[N+](C)(C)C.[Br-] [CTAB]
MIC, Agar-dilution (S. parasitica CBS 540.67 [1]): 50 µg/mL | MIC, Macrodilution (S. parasitica T-1 [2]): 5 mg/L | MIC, Macrodilution (S. parasitica CBS 540.67 [3]): 5 mg/L | MIC, Agar-dilution (S. parasitica T-1 [4]): 10 µg/mL

O=[N+]([O-])C(Br)(CO)CO [Pyceze ®]
MIC (S. parasitica CBS 540.67 [1]): 200 µg/mL (≈ 1000 µM) | Toxicity (tilapia; Table 4 summary): Moderate (moderate = 50-200 ppm) | LC50 values compared with respective MIC values (tilapia; tilapia LC50 versus S. parasitica MIC): lower, similar or insignificantly different | MIC (S. parasitica T-1 [2]): 100 µg/mL (≈ 500 µM) | MIC (S. parasitica CBS 540.67 [3]): 100 µg/mL (≈ 500 µM) | MIC (S. parasitica; [6]): 100 µg/mL (≈ 500 µM) | MIC (S. parasitica T-1 [4]): 100 µg/mL (≈ 500 µM)
